The text below walks through data of PubChem BioAssay (NCI).

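1) Cells in 96-well plates. 2) Compound, 48 h, 5 concentrations. 3) Linear interpolation between surrounding doses. 4) Unreached endpoint = highest concentration. GI50: concentration for 50% inhibition of growth. TGI is the concentration that stops growth completely.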 A value given as a limit tells only on which side of the number the result lay.

Some test systems named below: 786-0 renal; ACHN renal; UACC-257 melanoma; NCI-H460 lung; LOX IMVI melanoma; HCT-15 colon; U251 CNS; K-562 leukemia; MDA-MB-231 breast; HOP-92 NSCLC.
Common to all, as to assay: DTP human tumour cell line panel, 48 h

Regarding `CC1=C(C(=O)Nc2ccc(C)cc2)C(c2cccc([N+](=O)[O-])c2)C(C(=O)Nc2ccc(C)cc2)=C(C)N1`, the TGI with 786-0 renal was over 100 µM; in the test with ACHN renal, 80.8 µM; in the test on UACC-257 melanoma, 56.7 µM; with NCI-H460 lung, 60.8 µM; in the test on LOX IMVI melanoma, 32.3 µM; in the test on HCT-15 colon, over 100 µM. In addition, the TGI is 75.6 µM with U251 CNS and 63.5 µM with K-562 leukemia.
In the case of `O=C1OCC2=C1C(c1cccc(Cl)c1)c1cc3c(cc1N2CCO)CCC3` (configuration not stated), the GI50 in the test on 786-0 renal is 0.0485 µM; in the test on ACHN renal, 0.0846 µM; with UACC-257 melanoma it was 0.0354 µM; in the test on NCI-H460 lung, 0.038 µM; in the test on LOX IMVI melanoma, 0.0661 µM; in the test on HCT-15 colon it was 0.0471 µM. Also, the values for the GI50 with MDA-MB-231 breast, in the test with U251 CNS and in the test on K-562 leukemia were 0.217 µM, 0.0372 µM and 0.0478 µM, respectively. Moreover, the TGI was 10.8 µM in the test on 786-0 renal; 14.6 µM in the test with ACHN renal; 15.6 µM in the test with UACC-257 melanoma; 4.12 µM with NCI-H460 lung; 13.8 µM with LOX IMVI melanoma; 12.6 µM in the test with HCT-15 colon. Moreover, the TGI turned out to be 2.21 µM in the test on MDA-MB-231 breast, 4.5 µM with U251 CNS and 14.4 µM in the test on K-562 leukemia.
Take `Cc1ccccc1-n1c(CCl)nc2ccc(Br)cc2c1=O`: the TGI turned out to be 20.6 µM in the test with 786-0 renal; 83.8 µM in the test with ACHN renal; 32.2 µM with UACC-257 melanoma; 28 µM with NCI-H460 lung; 1.46 µM in the test with LOX IMVI melanoma; 14.4 µM in the test on HCT-15 colon. Also, the TGI in the test with U251 CNS was found to be 25.9 µM; with HOP-92 NSCLC it was 36 µM.
Take `CC(=O)Nc1ccc(C2=N/C(=C\c3ccc(Cl)cc3)C(=O)O2)cc1`: the TGI in the test with 786-0 renal is 51.6 µM; in the test on ACHN renal it was 94 µM; in the test on UACC-257 melanoma, over 100 µM; in the test on NCI-H460 lung, over 100 µM; with LOX IMVI melanoma, 35.6 µM; in the test with HCT-15 colon it was 37.1 µM. In addition, the TGI in the test on U251 CNS was over 100 µM; in the test with K-562 leukemia, 51.8 µM; in the test with HOP-92 NSCLC, over 100 µM.
For `COC(=O)C1=CC(=O)[C@@H]2CCCC[C@H]12`, the TGI with 786-0 renal, in the test with ACHN renal, with UACC-257 melanoma, in the test with NCI-H460 lung, with HCT-15 colon and with U251 CNS was over 100 µM each time. Also, the TGI in the test with K-562 leukemia is over 100 µM.
Turning to `O=C(CC1(O)C(=O)Nc2ccccc21)c1ccccc1O` (configuration not stated), the TGI in the test with 786-0 renal, with ACHN renal, in the test on UACC-257 melanoma, with NCI-H460 lung, with LOX IMVI melanoma and with HCT-15 colon was over 100 µM throughout. Besides, the TGI in the test with K-562 leukemia and in the test with HOP-92 NSCLC was over 100 µM throughout.
Consider `CC/C(=C(/c1ccc(OCCN(C)C)cc1)c1ccc(OC(=O)CCCCCCCCC(=O)c2c(C)[nH]c(/C=C3\N=C(c4ccc[nH]4)C=C3OC)c2C)cc1)c1ccccc1`, for which the GI50 with 786-0 renal is 5.19 µM; in the test with ACHN renal it was 7.82 µM; in the test with UACC-257 melanoma, 62.5 µM; in the test with NCI-H460 lung, 4.26 µM; with LOX IMVI melanoma, 2.36 µM; in the test on HCT-15 colon, 5.12 µM. For the same compound, the figures for the GI50 in the test with MDA-MB-231 breast, with U251 CNS and with K-562 leukemia were 3.4 µM, 4.2 µM and 4.54 µM, respectively. Besides, the TGI in the test on 786-0 renal was over 100 µM; in the test with ACHN renal it was over 100 µM; in the test on UACC-257 melanoma it was over 100 µM; with NCI-H460 lung it was over 100 µM; with LOX IMVI melanoma, 5.93 µM; in the test on HCT-15 colon it was 97.8 µM. For the same compound, the TGI is 18.1 µM with MDA-MB-231 breast, over 100 µM in the test on U251 CNS and over 100 µM in the test with K-562 leukemia.
As for `Clc1ccccc1C1SCc2nc3ccccc3n21` (configuration not stated), the TGI with 786-0 renal is 88 µM; in the test with ACHN renal, over 100 µM; in the test with NCI-H460 lung, over 100 µM; with LOX IMVI melanoma it was 81.8 µM; in the test on HCT-15 colon, over 100 µM; in the test with U251 CNS, 54.8 µM. Moreover, the results for the TGI with K-562 leukemia and in the test with HOP-92 NSCLC were over 100 µM and 31.3 µM, respectively.
For the compound `CCc1ccccc1NC(=O)C(=O)C1C(=O)N(c2ccccc2)N=C1N` (configuration not stated), the TGI with 786-0 renal, with ACHN renal, in the test with UACC-257 melanoma, in the test with NCI-H460 lung, in the test on LOX IMVI melanoma and with HCT-15 colon was over 100 µM throughout. For the same compound, the TGI with U251 CNS, in the test with K-562 leukemia and with HOP-92 NSCLC was over 100 µM in each case.
`N#CCCN(c1ccc(C=O)cc1)S(=O)(=O)c1ccccc1`: the TGI in the test on 786-0 renal, in the test on ACHN renal, with UACC-257 melanoma, with NCI-H460 lung, with LOX IMVI melanoma and with HCT-15 colon was over 100 µM throughout. Besides, the TGI in the test on U251 CNS and in the test with K-562 leukemia was over 100 µM each time.
`N#Cc1cccc(C2C(=O)c3ccc(C(=O)c4ccc5c(c4)C(=O)N(c4ccc(Oc6ccc(N7C(=O)c8ccc(C(=O)c9ccc%10c(c9)C(=O)N(c9cccc(C#N)c9)C%10=O)cc8C7=O)cc6)cc4)C5=O)cc3C2=O)c1` (configuration not stated): the TGI in the test with 786-0 renal, in the test with ACHN renal, in the test on UACC-257 melanoma, in the test on NCI-H460 lung, in the test on HCT-15 colon and with U251 CNS was over 100 µM in each case. Besides, the TGI in the test on K-562 leukemia and in the test on HOP-92 NSCLC was over 100 µM each time.
As for `COc1cc2c(cc1-c1coc3cc(O)ccc3c1=O)OCO2`, the TGI was 29.9 µM with 786-0 renal; 40.9 µM in the test with ACHN renal; 85.1 µM with UACC-257 melanoma; 32 µM in the test with NCI-H460 lung; over 100 µM in the test with LOX IMVI melanoma; 35.6 µM in the test with HCT-15 colon. The TGI was 45.9 µM in the test with U251 CNS, over 100 µM with K-562 leukemia and 67.6 µM in the test with HOP-92 NSCLC.
For `COc1cc(CC(=O)O)c([N+](=O)[O-])cc1OC`, the TGI with 786-0 renal, in the test with ACHN renal, with UACC-257 melanoma, in the test with NCI-H460 lung, with LOX IMVI melanoma and in the test on HCT-15 colon was over 100 µM throughout. The TGI in the test with U251 CNS, in the test on K-562 leukemia and with HOP-92 NSCLC was over 100 µM each time.
